PubChem BioAssay AID1963875 (Molecular Pharmacology Branch, DTP, NCI, 2024)

System: KRAS-mutant PDC complex spheroid viability
Experiment: Anticancer human tumor 186277-243-T-J2-PDC patient-derived colon adenocarcinoma cell line growth inhibition [KRAS2]
Conditions: for IC50: curve of first compound; for viability, T/C: stronger effect = lower value
Summary of the method: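 KRAS-mutant tumor cells were grown as spheroids with HUVEC endothelial cells and human MSCs as stroma. Targeted agents were tested alone and with KRAS pathway inhibitors. Doses started at or near clinical Cmax, or 10 microM, descending half-log.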

[1] = second compound 0.0316 µM, first compound 0.0316 µM
[2] = second compound 0.0316 µM, first compound 0.1 µM
[3] = second compound 0.1 µM, first compound 0.0316 µM
[4] = second compound 0.1 µM, first compound 0.1 µM
[5] = second compound 0.316 µM, first compound 0.0316 µM
[6] = second compound 0.316 µM, first compound 0.1 µM
[7] = second compound 1 µM, first compound 0.0316 µM
[8] = second compound 1 µM, first compound 0.1 µM
[9] = second compound 3.16 µM, first compound 0.0316 µM
[10] = second compound 3.16 µM, first compound 0.1 µM
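Throughout, for viability, T/C: viability read after seven days of compound exposure; 100% = DMSO vehicle-treated spheroids so lower means less viable.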

Question: Which IC50 (second compound 0.0316 µM) does the source give for `CC(C)n1nc(-c2ccc3oc(N)nc3c2)c2c(N)ncnc21` + C=CC(=O)N1CCN(c2nc(OCC3CCCN3C)nc3c2CCN(c2cccc4cccc(C)c24)C3)CC1CC#N here?
Answer: 7.13 nM

Question: And the IC50 (second compound 0.1 µM)?
Answer: 10.1 nM

Question: And the IC50 (second compound 0.316 µM)?
Answer: 13.6 nM

Question: And the IC50 (second compound 1 µM)?
Answer: 6.5 nM

Question: What about the IC50 (second compound 3.16 µM) of the same compound?
Answer: < 0.316 nM

Question: What about the viability, T/C (second compound 0.0316 µM, first compound 0.000316 µM) of the same compound?
Answer: 89.7%

Question: And the viability, T/C (second compound 0.0316 µM, first compound 0.001 µM)?
Answer: 78.9%

Question: What about the viability, T/C (second compound 0.0316 µM, first compound 0.00316 µM) of the same compound?
Answer: 63.5%

Question: What about the viability, T/C (second compound 0.0316 µM, first compound 0.01 µM) of the same compound?
Answer: 44.2%

Question: And the viability, T/C [1]?
Answer: 28.2%

Question: What about the viability, T/C [2] of the same compound?
Answer: 16.9%

Question: What about the viability, T/C (second compound 0.1 µM, first compound 0.000316 µM) of the same compound?
Answer: 88%

Question: And the viability, T/C (second compound 0.1 µM, first compound 0.001 µM)?
Answer: 101%

Question: And the viability, T/C (second compound 0.1 µM, first compound 0.00316 µM)?
Answer: 77.8%

Question: What about the viability, T/C (second compound 0.1 µM, first compound 0.01 µM) of the same compound?
Answer: 51.2%

Question: What about the viability, T/C [3] of the same compound?
Answer: 27.4%

Question: And the viability, T/C [4]?
Answer: 21.2%

Question: And the viability, T/C (second compound 0.316 µM, first compound 0.000316 µM)?
Answer: 106%

Question: What about the viability, T/C (second compound 0.316 µM, first compound 0.001 µM) of the same compound?
Answer: 111%

Question: And the viability, T/C (second compound 0.316 µM, first compound 0.00316 µM)?
Answer: 97.1%

Question: What about the viability, T/C (second compound 0.316 µM, first compound 0.01 µM) of the same compound?
Answer: 58.2%

Question: And the viability, T/C [5]?
Answer: 27%

Question: And the viability, T/C [6]?
Answer: 16.4%

Question: And the viability, T/C (second compound 1 µM, first compound 0.000316 µM)?
Answer: 102%

Question: And the viability, T/C (second compound 1 µM, first compound 0.001 µM)?
Answer: 96.1%

Question: What about the viability, T/C (second compound 1 µM, first compound 0.00316 µM) of the same compound?
Answer: 70.8%

Question: And the viability, T/C (second compound 1 µM, first compound 0.01 µM)?
Answer: 38.4%

Question: And the viability, T/C [7]?
Answer: 12.8%

Question: And the viability, T/C [8]?
Answer: 8.12%

Question: What about the viability, T/C (second compound 3.16 µM, first compound 0.000316 µM) of the same compound?
Answer: 0.26%

Question: What about the viability, T/C (second compound 3.16 µM, first compound 0.001 µM) of the same compound?
Answer: 0.19%

Question: What about the viability, T/C (second compound 3.16 µM, first compound 0.00316 µM) of the same compound?
Answer: 0.24%

Question: What about the viability, T/C (second compound 3.16 µM, first compound 0.01 µM) of the same compound?
Answer: 0.14%

Question: And the viability, T/C [9]?
Answer: 0.12%

Question: What about the viability, T/C [10] of the same compound?
Answer: 0.16%

Question: What does the source list for `CC1(C)CCC(CN2CCN(c3ccc(C(=O)NS(=O)(=O)c4ccc(NCC5CCOCC5)c([N+](=O)[O-])c4)c(Oc4cnc5[nH]ccc5c4)c3)CC2)=C(c2ccc(Cl)cc2)C1` + C=CC(=O)N1CCN(c2nc(OCC3CCCN3C)nc3c2CCN(c2cccc4cccc(C)c24)C3)CC1CC#N?
Answer: IC50 (second compound 0.0316 µM): 2130 nM; IC50 (second compound 0.1 µM): 2240 nM; IC50 (second compound 0.316 µM): 1950 nM; IC50 (second compound 1 µM): 1770 nM; IC50 (second compound 3.16 µM): < 31.6 nM; viability, T/C [1]: 101%; viability, T/C [2]: 107%; viability, T/C (second compound 0.0316 µM, first compound 0.316 µM): 110%; viability, T/C (second compound 0.0316 µM, first compound 1 µM): 117%; viability, T/C (second compound 0.0316 µM, first compound 3.16 µM): 19.4%; viability, T/C (second compound 0.0316 µM, first compound 10 µM): 3.14%; viability, T/C [3]: 115%; viability, T/C [4]: 105%; viability, T/C (second compound 0.1 µM, first compound 0.316 µM): 112%; viability, T/C (second compound 0.1 µM, first compound 1 µM): 108%; viability, T/C (second compound 0.1 µM, first compound 3.16 µM): 25%; viability, T/C (second compound 0.1 µM, first compound 10 µM): 4.15%; viability, T/C [5]: 114%; viability, T/C [6]: 108%; viability, T/C (second compound 0.316 µM, first compound 0.316 µM): 97.8%; viability, T/C (second compound 0.316 µM, first compound 1 µM): 105%; viability, T/C (second compound 0.316 µM, first compound 3.16 µM): 10.8%; viability, T/C (second compound 0.316 µM, first compound 10 µM): 0.82%; viability, T/C [7]: 119%; viability, T/C [8]: 101%; viability, T/C (second compound 1 µM, first compound 0.316 µM): 115%; viability, T/C (second compound 1 µM, first compound 1 µM): 98.2%; viability, T/C (second compound 1 µM, first compound 3.16 µM): 0.67%; viability, T/C (second compound 1 µM, first compound 10 µM): 0.35%; viability, T/C [9]: 0.28%; viability, T/C [10]: 1.07%; viability, T/C (second compound 3.16 µM, first compound 0.316 µM): 0.22%; viability, T/C (second compound 3.16 µM, first compound 1 µM): 0.18%; viability, T/C (second compound 3.16 µM, first compound 3.16 µM): 0.13%; viability, T/C (second compound 3.16 µM, first compound 10 µM): 0.17%
